Results on 22 molecules are retold here after ChEMBL document CHEMBL5150056, “Synthesis and antibiofilm evaluation of N-acyl-2-aminopyrimidine derivatives against Acinetobacter baumannii” (Bioorg Med Chem, 2022).

Values after ≈ are worked out from the molar mass of the structure shown. Active and inactive are the calls of the source. No cut-off for these calls is given here.

Data set [1] concerns Acinetobacter baumannii. In words: Antibiofilm activity against Acinetobacter baumannii S1 assessed as inhibition rate of biofilm formation at 100 uM incubated for 18 to 24 hrs by crystal violet staining based assay (reference value: 28.8 +/- 8.21%). Particulars: time 18-24 hrs. The class given is functional. Also on record: scale not given: the % may be the effect or the level left.

For data set [2], the system named is Acinetobacter baumannii. Kind of data set: Antibacterial activity against Acinetobacter baumannii S1 assessed as planktonic growth inhibition incubated for 18 to 24 hrs by CLSI protocol based assay. The class given is functional. The conditions noted are these: time 18-24 hrs.
The test system of data set [3] is Acinetobacter baumannii. In words: Antibacterial activity against Acinetobacter baumannii assessed as planktonic growth inhibition incubated for 18 to 24 hrs by CLSI protocol based assay. In kind it is functional. Particulars: time 18-24 hrs.
Data set [4] has as its system Acinetobacter baumannii. In words: Antibiofilm activity against Acinetobacter baumannii assessed as reduction in bacterial motility in agar plates by quorum sensing process at 100 uM incubated for 24 hrs. In kind it is functional, organism-based.
Data set [5] relates to Acinetobacter baumannii. In words: Synergistic antibacterial activity against Acinetobacter baumannii assessed as planktonic growth inhibition incubated for 18 to 24 hrs in the presence of oxacillin by CLSI protocol based checkerboard assay. The class given is functional. The conditions noted are these: time 18-24 hrs.
Data set [6] relates to Acinetobacter baumannii. Kind of data set: Antibiofilm activity against Acinetobacter baumannii assessed as reduction in biofilm thickness at 100 uM incubated for 24 hrs by Alexa fluor 488 staining based confocal laser microscopic analysis (reference value: 25.91). The class given is functional.
The test system of data set [7] is Acinetobacter baumannii. In words: Synergistic antibacterial activity against Acinetobacter baumannii assessed as fractional inhibitory concentration index incubated for 18 to 24 hrs in the presence of chloramphenicol by CLSI protocol based checkerboard assay. The class given is functional. The conditions noted are these: time 18-24 hrs.
In a further data set the test system is Staphylococcus aureus. Kind of data set: Antibiofilm activity against Staphylococcus aureus ATCC […] assessed as inhibition rate of biofilm formation at 200 uM incubated for 18 to 24 hrs by crystal violet staining based assay relative to control. In kind it is functional. The conditions noted are these: time 18-24 hrs.
For data set [8], the system named is 3T3-L1. Kind of data set: Cytotoxicity against mouse 3T3-L1 cells assessed as reduction in cell viability at 100 uM incubated for 24 hrs by MTT assay relative to control. The conditions noted are these: 3t3-l1, 24 h. In kind it is toxicity, cell-based. Background: Tetrazolium assays rely on reduction of a dye to a coloured formazan, in cell work by metabolically active cells.

Another data set has as its system Escherichia coli. Kind of data set: Antibiofilm activity against Escherichia coli Dh5alpha assessed as inhibition rate of biofilm formation at 200 uM incubated for 18 to 24 hrs by crystal violet staining based assay relative to control. In kind it is functional. Particulars: DH5-alpha, time 18-24 hrs.
Data set [9] deals with 3T3-L1. In words: Cytotoxicity against mouse 3T3-L1 cells assessed as reduction in cell viability at 12.5 uM incubated for 24 hrs by MTT assay relative to control. The conditions noted are these: 3t3-l1, 24 h. The class given is toxicity, cell-based.
Data set [10] deals with 3T3-L1. Kind of data set: Cytotoxicity against mouse 3T3-L1 cells assessed as reduction in cell viability at 200 uM incubated for 24 hrs by MTT assay relative to control. In kind it is toxicity, cell-based. Particulars: 3t3-l1, 24 h.
The test system of data set [11] is Acinetobacter baumannii. Kind of data set: Antibiofilm activity against Acinetobacter baumannii 1925052 assessed as inhibition of biofilm formation incubated for 18 to 24 hrs by crystal violet staining based assay. The class given is functional, organism-based.
The test system of data set [12] is Acinetobacter baumannii. In words: Antibiofilm activity against Acinetobacter baumannii 1778027 assessed as inhibition of biofilm formation incubated for 18 to 24 hrs by crystal violet staining based assay. In kind it is functional, organism-based.
Data set [13] deals with Acinetobacter baumannii. Kind of data set: Synergistic antibacterial activity against Acinetobacter baumannii assessed as planktonic growth inhibition incubated for 18 to 24 hrs in the presence of chloramphenicol by CLSI protocol based checkerboard assay. The class given is functional. Particulars: time 18-24 hrs.
Data set [14] concerns Acinetobacter baumannii. Kind of data set: Antibiofilm activity against Acinetobacter baumannii 1780608 assessed as inhibition of biofilm formation incubated for 18 to 24 hrs by crystal violet staining based assay. The class given is functional, organism-based.
Data set [15] relates to Acinetobacter baumannii. Kind of data set: Synergistic antibacterial activity against Acinetobacter baumannii assessed as fractional inhibitory concentration index incubated for 18 to 24 hrs in the presence of oxacillin by CLSI protocol based checkerboard assay. In kind it is functional. Particulars: time 18-24 hrs.
Data set [16] has as its system Staphylococcus epidermidis. In words: Antibiofilm activity against Staphylococcus epidermis ATCC 102555 assessed as inhibition rate of biofilm formation at 200 uM incubated for 18 to 24 hrs by crystal violet staining based assay relative to control. The class given is functional. Particulars: time 18-24 hrs.
Data set [17] has as its system Acinetobacter baumannii. In words: Synergistic antibacterial activity against Acinetobacter baumannii assessed as fractional inhibitory concentration index incubated for 18 to 24 hrs in the presence of gentamycin sulphate by CLSI protocol based checkerboard assay. The conditions noted are these: time 18-24 hrs. In kind it is functional.
For data set [18], the system named is 3T3-L1. In words: Cytotoxicity against mouse 3T3-L1 cells assessed as reduction in cell viability at 50 uM incubated for 24 hrs by MTT assay relative to control. In kind it is toxicity, cell-based. The conditions noted are these: 3t3-l1, 24 h.
The test system of data set [19] is Acinetobacter baumannii. In words: Synergistic antibacterial activity against Acinetobacter baumannii assessed as planktonic growth inhibition incubated for 18 to 24 hrs in the presence of gentamycin sulphate by CLSI protocol based checkerboard assay. The conditions noted are these: time 18-24 hrs. The class given is functional.
Data set [20] deals with 3T3-L1. Kind of data set: Cytotoxicity against mouse 3T3-L1 cells assessed as reduction in cell viability at 25 uM incubated for 24 hrs by MTT assay relative to control. Particulars: 3t3-l1, 24 h. The class given is toxicity, cell-based.
Data set [21] concerns Acinetobacter baumannii. In words: Antibiofilm activity against Acinetobacter baumannii ATCC19606 assessed as inhibition of biofilm formation incubated for 18 to 24 hrs by crystal violet staining based assay. The class given is functional, organism-based.
The test system of another data set is Pseudomonas aeruginosa. In words: Antibiofilm activity against Pseudomonas aeruginosa ATCC 27853 assessed as inhibition rate of biofilm formation at 200 uM incubated for 18 to 24 hrs by crystal violet staining based assay relative to control. The class given is functional. Particulars: time 18-24 hrs.
Data set [22] deals with Acinetobacter baumannii. Kind of data set: Antibiofilm activity against Acinetobacter baumannii assessed as reduction in extracellular polysaccharides at 100 uM incubated for 1 hrs by ELISA analysis. In kind it is functional. Further details: scale not given: the % may be the effect or the level left. In general terms: ELISA stands for enzyme-linked immunosorbent assay.

Data set [23] has as its system Acinetobacter baumannii. Kind of data set: Antibiofilm activity against Acinetobacter baumannii S1 assessed as inhibition of biofilm formation incubated for 18 to 24 hrs by crystal violet staining based assay. The class given is functional, organism-based.
The subject of data set [24] is Acinetobacter baumannii. In words: Antibiofilm activity against Acinetobacter baumannii 1913061 assessed as inhibition of biofilm formation incubated for 18 to 24 hrs by crystal violet staining based assay. In kind it is functional, organism-based.
The subject of data set [25] is Acinetobacter baumannii. Kind of data set: Antibiofilm activity against Acinetobacter baumannii 1778027 assessed as inhibition rate of biofilm formation at 200 uM incubated for 18 to 24 hrs by crystal violet staining based assay relative to control. In kind it is functional. The conditions noted are these: time 18-24 hrs.

As for `O=C(Nc1ncccn1)C(F)(F)C(F)(F)C(F)(F)F`, the Activity in the data set with Acinetobacter baumannii [1] was 19.9%. The MIC in the data set on Acinetobacter baumannii [2] was > 256 µg/mL.

For `CCCCCCCC(=O)Nc1ncccn1`, in the data set on Acinetobacter baumannii [1], the Activity amounted to 17.8%. In the data set on Acinetobacter baumannii [2], the MIC was > 256 µg/mL.

On to `O=C(Nc1ncccn1)OCc1ccccc1`, for which the Activity with Acinetobacter baumannii [1] was found to be 24.5%. The MIC in the data set on Acinetobacter baumannii [2] is > 256 µg/mL.

With `O=C(Nc1ncccn1)c1ccccc1`, the Activity with Acinetobacter baumannii [1] worked out at 28%. Besides, the MIC in the data set with Acinetobacter baumannii [2] was > 256 µg/mL.

Consider `O=C(N[C@H](CO)[C@H](O)c1ccc([N+](=O)[O-])cc1)C(Cl)Cl` [CHLORAMPHENICOL], for which, in the data set with Acinetobacter baumannii [3], the MIC turned out to be 256 µg/mL (≈ 792 µM).

As for `CCCCCCCCCCCCCC(=O)Nc1nc(F)cc(F)n1`, in the data set on Acinetobacter baumannii [1], the Activity was 20.8%.

With `O=C(Cc1cccs1)Nc1ncccn1`, the Activity with Acinetobacter baumannii [1] is reported as 5.5%. Besides, in the data set on Acinetobacter baumannii [2], the MIC was > 256 µg/mL.

Turning to `CCCCCCCCCCCCCC(=O)Nc1nc(C)cc(Cl)n1`, the Activity in the data set on Acinetobacter baumannii [1] came out at 46.6%. The MIC in the data set on Acinetobacter baumannii [2] is > 256 µg/mL.

On to `CCCCCCCCCCCCCC(=O)Nc1ncc(Cl)cn1`, for which the Activity in the data set with Acinetobacter baumannii [1] is recorded as 40.5%. For the same molecule, the MIC with Acinetobacter baumannii [2] is > 256 µg/mL.

As for `CCCCCCCCCCCCCC(=O)N1CCN(c2ncccn2)CC1`, the Activity with Acinetobacter baumannii [1] is 27.9%. Moreover, the MIC in the data set with Acinetobacter baumannii [2] was > 256 µg/mL.

For the molecule `CCCCCCCCCCCCCC(=O)Nc1nc(N)cc(Cl)n1`, in the data set with Acinetobacter baumannii [4], the outcome was Active. Further, the MIC with Acinetobacter baumannii [5] is 128 µg/mL; with Acinetobacter baumannii [13] it was 64 µg/mL; with Acinetobacter baumannii [3], 256 µg/mL (≈ 721 µM); in the data set on Acinetobacter baumannii [19] it was 0.125 µg/mL; in the data set with Acinetobacter baumannii [2], > 256 µg/mL. Also, the Activity in the data set with Acinetobacter baumannii [6] is listed as 16.04; in the data set with 3T3-L1 [8], 100.68%; in the data set with 3T3-L1 [9], 99.88%; with 3T3-L1 [10], 101.81%; in the data set with Acinetobacter baumannii [1], 69.9%; with 3T3-L1 [18] it was 100.81%. Besides, the figures for the Activity in the data set on 3T3-L1 [20] and with Acinetobacter baumannii [22] were 100.89% and 65%, respectively. Besides, the “fractional inhibitory concentration index (FICI)” value with Acinetobacter baumannii [7], in the data set with Acinetobacter baumannii [15] and in the data set on Acinetobacter baumannii [17] was 0.25 each time. Moreover, the inhibition at 200 µM (in the data set on Staphylococcus aureus; with Escherichia coli; in data set [16]; in the data set on Pseudomonas aeruginosa) was < 50% in each case. The IC50 in the data set on Acinetobacter baumannii [11] was found to be 68.1 µM; in the data set on Acinetobacter baumannii [12] it was 11.4 µM; with Acinetobacter baumannii [14], 43.3 µM; in the data set with Acinetobacter baumannii [21] it was 6.34 µM; in the data set on Acinetobacter baumannii [23] it was 39.3 µM; in the data set on Acinetobacter baumannii [24], 16.5 µM.

On to `CCCCCCCCCCCCCC(=O)Nc1nc(Cl)c(Cl)c(Cl)n1`, for which the Activity in the data set on Acinetobacter baumannii [1] was 32%. Moreover, the MIC in the data set with Acinetobacter baumannii [2] is > 256 µg/mL.

As to `CCCCCCCCCCCCCC(=O)Nc1nc(Cl)cc(Cl)n1`, the Activity in the data set with Acinetobacter baumannii [1] is 63.1%. Besides, the MIC in the data set on Acinetobacter baumannii [2] is > 256 µg/mL.

Regarding `CCCCCCCCCCCCCC(=O)Nc1nc(Cl)cc(NC)n1`, the Activity in the data set with Acinetobacter baumannii [1] was 27%. In the data set on Acinetobacter baumannii [2], the MIC was > 256 µg/mL.

Consider `CCCCCCCCCCCCCC(=O)Nc1nc(Cl)cc(N(C)C)n1`, for which, in the data set on Acinetobacter baumannii [1], the Activity turned out to be 40.5%. The MIC with Acinetobacter baumannii [2] is > 256 µg/mL.

Consider `CCCCCCCCCC(=O)Nc1ncccn1`, for which the Activity in the data set with Acinetobacter baumannii [1] stood at 33.2%. Moreover, in the data set on Acinetobacter baumannii [2], the MIC is > 256 µg/mL.

Turning to `CCCCCCCCCCCCCC(=O)Nc1nc(OC)cc(OC)n1`, the Activity with Acinetobacter baumannii [1] is 59.3%. Moreover, the MIC in the data set with Acinetobacter baumannii [2] was > 256 µg/mL.

As for `CCCCCC(=O)Nc1ncccn1`, the Activity in the data set with Acinetobacter baumannii [1] was 23.3%. The MIC with Acinetobacter baumannii [2] is > 256 µg/mL.

On to `O=C(Cc1cccc(Br)c1)N[C@H]1CCOC1=O`, for which the inhibition at 200 µM (in the data set on Staphylococcus aureus; in the data set on Escherichia coli; in data set [16]; in the data set with Acinetobacter baumannii [25]; with Pseudomonas aeruginosa) was < 50% in each case. Also, the IC50 with Acinetobacter baumannii [11] turned out to be 195 µM; in the data set with Acinetobacter baumannii [14] it was 120 µM; in the data set on Acinetobacter baumannii [21], 85.3 µM; with Acinetobacter baumannii [23] it was 143 µM; in the data set on Acinetobacter baumannii [24] it was 22.8 µM.

On to `CC(C)(C)C(=O)Nc1ncccn1`, for which the Activity in the data set with Acinetobacter baumannii [1] is 12.3%. Further, the MIC with Acinetobacter baumannii [2] is > 256 µg/mL.

Consider `CC(C)CC(=O)Nc1ncccn1`, for which the Activity with Acinetobacter baumannii [1] stood at 3.8%. In the data set on Acinetobacter baumannii [2], the MIC is > 256 µg/mL.

On to `O=C(Nc1ncccn1)c1ccc([N+](=O)[O-])cc1`, for which the Activity in the data set with Acinetobacter baumannii [1] turned out to be 25.1%. Moreover, the MIC in the data set with Acinetobacter baumannii [2] was > 256 µg/mL.

The MIC is the lowest concentration that inhibits growth of the organism. For orientation: inhibition means the relative decrease from the control value, in per cent. As usually defined, the IC50 is the concentration that inhibits the measured activity by half.
